# Values quoted from earlier work, collected in patent publication US20230320989A1, “SUSTAINED-RELEASE PHARMACEUTICAL FORMULATION OF FUSED TRICYCLIC ?-AMINO ACID DERIVATIVE AND PREPARATION METHOD THEREFOR” (SICHUAN HAISCO PHARMACEUTICAL CO., LTD., priority 2020, published 2023).
# Conditions: patients with diabetic peripheral neuropathy
smiles,measurement,value
NCC1(CC(=O)O)CCCCC1 [gabapentin],proportion of patients whose pain is relieved to a great extent,about 60%
